MIC, k2 and kinact/KI data for one compound are collected here from article PMC9603521, “WYBQ-4: a New Bactericidal Agent against Methicillin-Resistant Staphylococcus aureus” (Microbiology Spectrum, 2022).

What is called MIC is the least concentration at which growth counts as inhibited. A high value points to weaker potency.

One assay has as its system MRSA USA300. Kind of assay: MIC by broth microdilution (CLSI). The class given is cell-based. As to conditions: Staphylococcus aureus. The method, then:
(§1) The antibacterial spectrum and susceptibility of WYBQ-4 against MRSA USA300, MSSA 29213, and clinically isolated S. aureus were determined using a broth microdilution method following the guidelines outlined by the Clinical and Laboratory Standards Institute (CLSI) ([37], [38]). […] The absorbance was measured at 600 nm, and experiments were repeated in three biological replicates.

Assay [1] deals with methicillin-susceptible Staphylococcus aureus (MSSA) 29213. Put plainly: MIC by broth microdilution (CLSI). The format is cell-based. The protocol:
as §1
On the technique in general: Broth dilution looks for growth in wells or tubes with falling amounts of substance.

In another assay the target is PBP2a (Staphylococcus aureus, UniProt P07944). Put plainly: PBP2a acylation kinetics, nitrocefin competition assay. The format is biochemical, MRSA. The method, then: Please refer to the supplemental material for the kinetic parameters of the interaction between WYBQ-4 and PBP2a and the determination of the rate of diacylation.
Chain of PBP2a (P07944 whole entry): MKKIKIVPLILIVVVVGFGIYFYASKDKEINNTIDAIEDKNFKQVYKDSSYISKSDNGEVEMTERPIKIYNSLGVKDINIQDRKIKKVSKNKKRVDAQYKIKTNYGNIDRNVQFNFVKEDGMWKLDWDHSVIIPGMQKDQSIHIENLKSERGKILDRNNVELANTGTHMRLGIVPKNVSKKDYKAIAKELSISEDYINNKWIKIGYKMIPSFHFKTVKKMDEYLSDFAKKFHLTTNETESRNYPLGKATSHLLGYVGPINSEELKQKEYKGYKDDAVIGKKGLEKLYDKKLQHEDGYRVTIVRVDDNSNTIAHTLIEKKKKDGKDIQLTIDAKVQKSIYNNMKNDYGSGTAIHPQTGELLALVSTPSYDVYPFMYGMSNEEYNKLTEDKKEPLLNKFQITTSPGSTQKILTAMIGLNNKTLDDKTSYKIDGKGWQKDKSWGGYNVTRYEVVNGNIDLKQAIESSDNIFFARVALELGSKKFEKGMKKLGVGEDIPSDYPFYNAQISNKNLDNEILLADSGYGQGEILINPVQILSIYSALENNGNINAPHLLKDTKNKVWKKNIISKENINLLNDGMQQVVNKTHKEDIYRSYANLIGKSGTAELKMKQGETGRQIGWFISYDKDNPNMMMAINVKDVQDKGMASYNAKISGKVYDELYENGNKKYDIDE
Supplementary Method. 1 Determination of the Kinetic Parameters for Interactions of […]
Determination of the kinetic parameters for interactions of WYBQ-4 with PBP2a The kinetic parameters of the interaction of WYBQ-4 with PBP2a were determined as previously described (1). The kinetics of the reaction between PBP2a of MRSA with WYBQ-4 was studied in homogeneous aqueous solution at 37℃ in 25 mM Hepes buffer, pH 7.0, containing 1 M NaCl and the inhibition of PBPs by β-lactams follows this kinetic scheme. […]
In this minimal scheme, E represents PBP2a, EI is the noncovalent preacylation complex, E-I is the covalent acyl-enzyme species, and P denotes the product of E-I hydrolysis and restoration of […]
The typical reactions of β-lactam could be monitored through competition with a chromophoric β-lactam, nitrocefin, or directly in certain cases by fluorescence intensity of protein. In this study, it is proposed to determine the secondary rate constants (k2/Ks) of WYBQ-4 by nitrocefin competition assay. The reaction was conducted in the above buffer, and the reaction system contained PBP2a (2.5 μM) and different concentrations of nitrocefin (20-120 μM). The reaction was carried out in a UV spectrophotometer (PERSEE T600, China) and the change in absorbance at 500 nm was […]
Apparent first-order rate constants for acylation by nitrocefin were determined by fitting the change in absorbance with time to eqn. (1):
A = A0 + ∆εn E0[(1 − exp (−kn∗ t)] + k0N0∆εn Ε0t (1) where A0 is the initial absorbance at 500 nm, ∆εn the change in molar absorption coefficient on nitrocefin hydrolysis (15900 M-1cm-1), E0 the initial enzyme concentration, N0 the initial nitrocefin concentration, kn* the (burst) pseudo-first-order rate constant for acylation of PBP2a by nitrocefin, and k0 the (line) second-order rate constant of a non-specific hydrolysis of nitrocefin in the presence of PBP2a. The second-order rate constants (kn) for acylation were calculated by fitting a plot of the apparent first-order rate constants (kn*) against the concentration of nitrocefin using a linear least-squares method.
Subsequently, nitrocefin (100 μM) was used as a reporter molecule to determine the apparent first-order rate constants for acylation of WYBQ-4 at different concentrations (0-500 μM) in competition assays. In this case, the change in absorbance at 500 nm with time was fitted to eqn.
Α = A + ∆ε E (k∗ ∕ (k∗ + k∗)(1 − exp (−(k∗ + k∗)t)) + k N ∆ε Ε t (2) […]

In brackets after ≈: the same amount, converted by molar mass.

Regarding `C#CCO[C@@]1(NC(=O)CSc2cccc(C)c2)C(=O)N2C(C(=O)O)=C(CSc3nnnn3C)CSC21` (stereo partly shown) [WYBQ-4], the minimum inhibitory concentration (MIC) came to 8 µg/mL (≈ 14.6 µM) in the assay with MRSA USA300 and 0.5 µg/mL (≈ 0.915 µM) in assay [1]. The compound also returned a k2 on PBP2a (PBP2a acylation) of 4.872 ± 0.14 s^–1 × 10^3. The kinact/KI at PBP2a (pH 7, read-out: k2/ks) was 174 ± 8.45 M⁻¹ s⁻¹.
